How the values were obtained:
HIV-IIIb = experiment: Test A: Antiviral Assay in MT4 Cells; type: cell-based, HIV-1; conditions: Human immunodeficiency virus 1, IIIB, MT4, 120 h; for inhibition at 0.2 µM: read-out: % inhibition at 0.2 μM; for inhibition at 2 µM: read-out: % inhibition at 2 μM
Description: Test A: Antiviral Assay in MT4 Cells
MT-4 cells were next mixed with HIV-IIIb at an m.o.i of 0.003 for 1 hour, after which time 35 μL of virus/cell mixture (2000 cells) was immediately added to each well containing 40 μL of diluted compound. The plates were then incubated at 37° C. for 5 days. […] Cell lysis was carried out by incubating at room temperature for 10 min and then chemiluminescence was read.

[1] = Test B: Cytotoxicity Assay; type: cell-based; conditions: human, uninfected MT-4 cells, same protocol as Test A
How it was run: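 Uninfected MT-4 cells (2000 per well) incubated with diluted compound at 37° C. for 5 days, following the antiviral protocol without HIV-IIIb.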

Compound	inhibition at 0.2 µM (HIV-IIIb) [%]	inhibition at 2 µM (HIV-IIIb) [%]	CC50 at 5 days [1] [µM]
Cn1nc(NS(C)(=O)=O)c2c(Cl)ccc(-c3ccc(C#CC(C)(C)O)nc3[C@H](Cc3cc(F)cc(F)c3)NC(=O)Cc3cccc(Cl)c3Cl)c21 [Compound 129, (S)—N-(1-(3-(4 chloro-1-methyl-3-(methylsulfonamido)-1H-indazol-7-yl)-6-(3-hydroxy-3-methylbut-1-yn-1-yl)pyridin-2-yl)-2-(3,5-difluorophenyl)ethyl)-2-(2,3-dichlorophenyl)acetamide]	54	82	12.1
C[C@H](O)C#Cc1ccc(-c2ccc(Cl)c3c(NS(C)(=O)=O)nn(C)c23)c([C@H](Cc2cc(F)cc(F)c2)NC(=O)Cn2nc(C(F)F)c3c2C(F)(F)[C@@H]2C[C@H]32)n1 [Compound 142, N—((S)-1-(3-(4-chloro-1-methyl-3-(methylsulfonamido)-1H-indazol-7-yl)-6-((S)-3-hydroxybut-1-yn-1-yl)pyridin-2-yl)-2-(3,5-difluorophenyl)ethyl)-2-((3bS,4aR)-3-(difluoromethyl)-5,5-difluoro-3b,4,4a,5-tetrahydro-1H-cyclopropa[3,4]cyclopenta[1,2-c]pyrazol-1-yl)acetamide]	92	92	12.6
Cn1nc(NS(C)(=O)=O)c2c(Cl)ccc(-c3ccc(C#CC(C)(C)O)nc3[C@H](Cc3cc(F)cc(F)c3)NC(=O)Cc3noc4ccccc34)c21 [Compound 198, (S)-2-(benzo[d]isoxazol-3-yl)-N-(1-(3-(4 chloro-1-methyl-3-(methylsulfonamido)-1H-indazol-7-yl)-6-(3-hydroxy-3-methylbut-1-yn-1-yl)pyridin-2-yl)-2-(3,5-difluorophenyl)ethyl)acetamide]	64	98	23.7
CC(=O)Nc1nn(CC(=O)N[C@@H](Cc2cc(F)cc(F)c2)c2nc(C#CC(C)(C)O)ccc2-c2ccc(Cl)c3c(NS(C)(=O)=O)nn(C)c23)c2c1[C@H]1C[C@H]1C2(F)F [Compound 163, 2-((3bS,4aR)-3-acetamido-5,5-difluoro-3b,4,4a,5-tetrahydro-1H-cyclopropa[3,4]cyclopenta[1,2-c]pyrazol-1-yl)-N—((S)-1-(3-(4-chloro-1-methyl-3-(methylsulfonamido)-1H-indazol-7-yl)-6-(3-hydroxy-3-methylbut-1-yn-1-yl)pyridin-2-yl)-2-(3,5-difluorophenyl)ethyl)acetamide]	79	86	8.85
Cc1nc(NS(C)(=O)=O)c2cccc(-c3ccc(C#CC(C)(C)O)nc3[C@H](Cc3cc(F)cc(F)c3)NC(=O)Cn3nc(C(F)(F)F)c4c3C(F)(F)[C@@H]3C[C@H]43)n12 [Compound 121, 2-((3bS,4aR)-5,5-difluoro-3-(trifluoromethyl)-3b,4,4a,5-tetrahydro-1H-cyclopropa[3,4]cyclopenta[1,2-c]pyrazol-1-yl)-N—((S)-2-(3,5-difluorophenyl)-1-(6-(3-hydroxy-3-methylbut-1-yn-1-yl)-3-(3-methyl-1-(methylsulfonamido)imidazo[1,5-a]pyridin-5-yl)pyridin-2-yl)ethyl)acetamide]	46	98	9.18
Cn1nc(N)c2c(Cl)ccc(-c3ccc(C#CC(C)(C)O)nc3[C@H](Cc3cc(F)cc(F)c3)NC(=O)Cn3nc(C(F)F)c4c3C(F)(F)[C@@H]3C[C@H]43)c21 [Compound 57, N—((S)-1-(3-(3-amino-4-chloro-1-methyl-1H-indazol-7-yl)-6-(3-hydroxy-3-methylbut-1-yn-1-yl)pyridin-2-yl)-2-(3,5-difluorophenyl)ethyl)-2-((3bS,4aR)-3-(difluoromethyl)-5,5-difluoro-3b,4,4a,5-tetrahydro-1H-cyclopropa[3,4]cyclopenta[1,2-c]pyrazol-1-yl)acetamide]	93	93	7.63
Cn1nc(NS(C)(=O)=O)c2cccc(-c3ccc(C#CC(C)(C)O)nc3[C@H](Cc3cc(F)cc(F)c3)NC(=O)Cn3nc(C(F)F)c4c3C(F)(F)CCC4(F)F)c21 [Compound 42, (S)-2-(3-(difluoromethyl)-4,4,7,7-tetrafluoro-4,5,6,7-tetrahydro-1H-indazol-1-yl)-N-(2-(3,5-difluorophenyl)-1-(6-(3-hydroxy-3-methylbut-1-yn-1-yl)-3-(1-methyl-3-(methylsulfonamido)-1H-indazol-7-yl)pyridin-2-yl)ethyl)acetamide]	100	100	11.8
CC(=O)Nc1nn(C)c2c(-c3ccc(C#CC(C)(C)O)nc3[C@H](Cc3cc(F)cc(F)c3)NC(=O)Cn3nc(C(F)F)c4c3C(F)(F)[C@@H]3C[C@H]43)ccc(Cl)c12 [Compound 94, N—((S)-1-(3-(3-acetamido-4-chloro-1-methyl-1H-indazol-7-yl)-6-(3-hydroxy-3-methylbut-1-yn-1-yl)pyridin-2-yl)-2-(3,5-difluorophenyl)ethyl)-2-((3b-S,4aR)-3-(difluoromethyl)-5,5-difluoro-3b,4,4a,5-tetrahydro-1H-cyclopropa[3,4]cyclopenta[1,2-c]pyrazol-1-yl)acetamide]	100	100	7.58
Cn1nc(NS(C)(=O)=O)c2c(Cl)ccc(-c3ccc(C#CC(C)(C)O)nc3[C@H](Cc3cc(F)cc(F)c3)NC(=O)Cn3nc(Cl)c4c3C(F)(F)[C@@H]3C[C@H]43)c21 [Compound 149, N—((S)-1-(3-(4-chloro-1-methyl-3-(methylsulfonamido)-1H-indazol-7-yl)-6-(3-hydroxy-3-methylbut-1-yn-1-yl)pyridin-2-yl)-2-(3,5-difluorophenyl)ethyl)-2-((3bS,4aR)-3-chloro-5,5-difluoro-3b,4,4a,5-tetrahydro-1H-cyclopropa[3,4]cyclopenta[1,2-c]pyrazol-1-yl)acetamide]	86	86	26.7
CCn1nc(N)c2cccc(-c3ccc(C#CC(C)(C)O)nc3[C@H](Cc3cc(F)cc(F)c3)NC(=O)Cn3nc(C(F)(F)F)c4c3C(F)(F)[C@@H]3C[C@H]43)c21 [Compound 45G, N—((S)-1-(3-(3-amino-1-ethyl-1H-indazol-7-yl)-6-(3-hydroxy-3-methylbut-1-yn-1-yl)pyridin-2-yl)-2-(3,5-difluorophenyl)ethyl)-2-((3b-S,4aR)-5,5-difluoro-3-(trifluoromethyl)-3b,4,4a,5-tetrahydro-1H-cyclopropa[3,4]cyclopenta[1,2-c]pyrazol-1-yl)acetamide]	92	92	10.4
Cc1nc(NS(C)(=O)=O)c2cccc(-c3ccc(C#CC(C)(C)O)nc3[C@H](Cc3cc(F)cc(F)c3)NC(=O)Cn3nc(C(F)F)c4c3C(F)(F)[C@@H]3C[C@H]43)n12 [Compound 120H, 2-((3b-S,4aR)-3-(difluoromethyl)-5,5-difluoro-3b,4,4a,5-tetrahydro-1H-cyclopropa[3,4]cyclopenta[1,2-c]pyrazol-1-yl)-N—((S)-2-(3,5-difluorophenyl)-1-(6-(3-hydroxy-3-methylbut-1-yn-1-yl)-3-(3-methyl-1-(methylsulfonamido)imidazo[1,5-a]pyridin-5-yl)pyridin-2-yl)ethyl)acetamide]	51	88	11.7
